Results on one molecule are retold here after US20120322752A1, “SOLID DISPERSIONS CONTAINING 20-O-beta-D-GLUCOPYRANOSYL-20(S)-PROTOPANAXADIOL” (priority 2009, published 2012).

Where only a bound is given, the exact number is not on record here.

A short description of series [1]: Dissolution test (USP paddle method, purified water). As to conditions: after 3 hours; 900 mL purified water, paddle 50 rpm, 25 mg IH-901 equivalent. In kind it is physicochemical. As to the method:
The dissolution profile of a drug from the solid dispersion prepared in Example 2 was evaluated. IH-901, which had been used to prepare the solid dispersion of […], was used as a control group. The dissolution test was carried out under the conditions that the second method (paddle method) of the dissolution test methods in the general test method of the United states Phamacopoeia was used, 900 mL of purified water was used as a test liquid, and the rotational speed of a paddle was 50 rpm. 25 mg of IH-901 (control group) or the solid dispersion prepared in Example 2 corresponding to 25 mg of IH-901 was dissolved in a dissolution liquid, left for 180 minutes and then filtered. Then, the content of IH-901 in the filtered solution was measured by high performance liquid chromatography. The high performance liquid chromatograph is commercially available from Hitachi Co., Ltd. The analysis of high performance liquid chromatography was conducted under the conditions of a C18 column (Luna, 5 um, 250 mm, Phenomenex Corp., U.S.A), mobile phase of acetonitrile:water (70:30), a flow rate of 1 mL/min, a detection wavelength of 205 nm and an injection volume of 50 ul. In FIG. 1, the X-axis represents time passage, and the Y-axis represents dissolution rate (%). Further, in FIG. 1, the raw material is represented as ◯, and the solid dispersion prepared in Example 2 is represented by […].

For series [2] the following is noted: oral administration; cited from earlier work.
The conditions of series [3]: aqueous solution including 40% of a cosolvent and 10% of a surfactant or inclusion compound forming agent (hydroxypropyl-β-cyclodextrin); cited from earlier work.

On to `CC(C)=CCC[C@](C)(O[C@@H]1O[C@H](CO)[C@@H](O)[C@H](O)[C@H]1O)[C@H]1CC[C@]2(C)[C@@H]1[C@H](O)C[C@@H]1[C@@]3(C)CC[C@H](O)C(C)(C)[C@@H]3CC[C@]12C` [IH-901, 20-O-β-D-glucopyranosyl-20(S)-protopanaxadiol], for which, in series [1], the dissolution rate result is “about 3%”. Moreover, the bioavailability in series [2] is given as 3.5%. Further, the “solubility of IH-901 in an aqueous solution” value in series [3] is no more than 10000 µg/mL.
